Results: patent publication US20210369677A1, “SMALL MOLECULE ACTIVATORS OF POLYCYSTIN-2 (PKD2) AND USES THEREOF” (Northwestern University, priority 2020, published 2021)

Target: T1, human polycystin-2 CTD EF hand (I704-P797) (Homo sapiens, UniProt Q13563)
T1 construct: The C-terminal fragment of the human polycystin-2 (I704-P797) was cloned into the PET19b vector; 10xHis (N); made in house; host or cells: E. coli BL21 (DE3)
T1 sequence (Q13563 704-797): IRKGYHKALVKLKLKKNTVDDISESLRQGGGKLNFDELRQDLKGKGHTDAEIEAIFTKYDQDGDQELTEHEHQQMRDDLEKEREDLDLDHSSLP
Assay: Isothermal titration calorimetry of divalent ions into the CTD of polycystin-2
Format: binding
Conditions: 25° C; read-out: Ca2+ affinity (Kd) for WT human CTD EF hand
Description: CTD protein expression, purification, and isothermal titration calorimetry. The C-terminal fragment of the human polycystin-2 (I704-P797) was cloned into the PET19b vector and transformed into BL21 (DE3) competent cells (New England Biolabs) for bacterial expression. The translated peptide has a 10×His tag on its N-terminus. The alanine mutants of the individual calcium-coordinating residues were created and transformed as well. Cells were grown in 2XYT broth in a 37° C. shaking incubator until OD600 reaches ˜0.6, and were induced by 0.4 mM isopropyl 1-thio-β-D-galactopyranoside and grown for another 4 hours. Cells were harvested and resuspended in Buffer A (500 mM NaCl, 20 mM Tris/HCl, pH 7.4), 5% glycerol, 0.25 mM EDTA pH 8.0, 1 mM PMSF (RPI), 25 μg/ml of lysozyme and DNase I (GoldBio). The suspension was then lysed by sonication and clarified by centrifugation (30,000×g for 0.5 h). Filtered supernatant was loaded into a HisPur cobalt Superflow agarose column (ThermoScientific). The column was washed with 10 column volume (CV) of buffer A, 5 CV of buffer A+5 mM imidazole, and finally eluted with 3 CV of buffer A+100 mM imidazole. The eluate was desalted by dialysis in 150 mM NaCl, 20 mM Tris/HCl, 20 mM imidazole, pH 7.4. SDS-PAGE gel confirmed the expression, solubility, and purity of the peptide. All of our solutions were formulated with ultrapure water (Milli-Q® IQ 7005 water purification system), that has less than 0.29 ng/L calcium ions present. The binding affinity is recorded based on the heat difference between the sample cell and reference cell measured by MicroCal iTC200. […] The cells were insulated by an adiabatic jacket held at 25° C. The heat of dilution of Ca^2+ was not subtracted from data sets, as the signal was prohibitively small for several of the mutant channels. The exothermic energy of the bimolecular interaction between Ca^2+ and peptide during each injection was analyzed by integrating the change in heat to generate the binding isotherm. […]

How did the Kd turn out when `[Ca+2]` [Ca^2+, calcium] was run?
Its Kd is 19 ± 5 µM.
